Biological target: T1, GFRα1-RET (Homo sapiens, UniProt P56159)
T1 construct: expressed in transfected cells; host or cells: MG87 murine fibroblasts, stably transfected
T1 sequence (P56159 25-429 limits assumed): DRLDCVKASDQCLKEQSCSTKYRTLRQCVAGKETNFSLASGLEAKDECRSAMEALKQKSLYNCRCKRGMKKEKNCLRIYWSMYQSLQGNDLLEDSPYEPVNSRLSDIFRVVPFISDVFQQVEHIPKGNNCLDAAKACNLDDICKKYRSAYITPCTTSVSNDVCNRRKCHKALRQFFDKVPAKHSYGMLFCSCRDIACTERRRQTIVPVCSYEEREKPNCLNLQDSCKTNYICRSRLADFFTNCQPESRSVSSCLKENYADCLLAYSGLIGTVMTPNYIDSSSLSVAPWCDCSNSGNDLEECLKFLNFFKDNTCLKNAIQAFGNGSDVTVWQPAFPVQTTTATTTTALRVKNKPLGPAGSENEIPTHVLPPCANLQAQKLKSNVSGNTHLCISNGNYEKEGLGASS
Assay: Elk1 reporter-gene (luciferase) assay in cells expressing GFRα1-RET
Format: cell-based
Settings: MG87 murine fibroblasts stably transfected with PathDetect Elk-1, GFRα1 and RET, 6 concentrations, agonist/activator activity
Procedure: For ECso determination, a dose-response test was performed using 6 concentrations of each tested compound. Dose-response curves were fitted using the sigmoidal dose-response (variable slope) analysis in GraphPad Prism program (Graph Pad Inc) and ECso of agonist/activator activity was calculated. Dose-response experiments were all performed in duplicate, two times independently.

Row | SMILES | EC50 [nM]
1 | CN(C)c1ccc(S(=O)(=O)N2CCC(c3ccccc3)CC2)cc1N1[C@@H]2CC[C@H]1CN(C(=O)c1cc(F)c(F)cc1Cl)C2 [compound 122, (2-chloro-4,5-difluoro-phenyl)-[(1S,5R)-8-[2-(dimethylamino)-5-[(4-phenyl-1-piperidyl)sulfonyl]phenyl]-3,8-diazabicyclo[3.2.1]octan-3-yl]methanone] | < 1000
2 | C[C@@H]1CN(C(=O)c2ccc(F)cc2Cl)CCN1c1cc(S(=O)(=O)NC(C)(C)C)cc(Cl)c1O [compound 111, N-tert-butyl-3-chloro-5-[(2R)-4-(2-chloro-4-fluoro-benzoyl)-2-methyl-piperazin-1-yl]-4-hydroxy-benzenesulfonamide] | < 1000
3 | COc1ccc(S(=O)(=O)N2CCC(F)CC2)cc1N1[C@@H]2CC[C@H]1CN(C(=O)c1ccc(F)cc1Cl)C2 [compound 006] | 1000 to 10000
4 | COc1ccc(S(=O)(=O)N2CCC(c3cccc(-n4cccn4)c3)CC2)cc1N1[C@@H]2CC[C@H]1CN(C(=O)c1ccc(F)cc1Cl)C2 [compound 043, (2-chloro-4-fluoro-phenyl)-[(1S,5R)-8-[2-methoxy-5-[[4-(3-pyrazol-1-ylphenyl)-1-piperidyl]sulfonyl]phenyl]-3,8-diazabicyclo[3.2.1]octan-3-yl]methanone] | < 1000
5 | Cc1cc(S(=O)(=O)NC(C)(C)C)cc(N2[C@@H]3CC[C@H]2CN(C(=O)c2ccc(F)cc2Cl)C3)c1O [compound 093] | < 1000
6 | COC(=O)c1ccc(S(=O)(=O)N2CCC(c3ccccc3)CC2)cc1N1[C@@H]2CC[C@H]1CN(C(=O)c1ccc(F)cc1Cl)C2 [compound 069, methyl 2-[(1S,5R)-3-(2-chloro-4-fluoro-benzoyl)-3,8-diazabicyclo[3.2.1]octan-8-yl]-4-[(4-phenyl-1-piperidyl)sulfonyl]benzoate] | < 1000
7 | Cc1cc(S(=O)(=O)N(C)CC2CC2)cc(N2[C@@H]3CC[C@H]2CN(C(=O)c2ccc(F)cc2Cl)C3)c1O [compound 092, 3-[(1S,5R)-3-(2-chloro-4-fluoro-benzoyl)-3,8-diazabicyclo[3.2.1]octan-8-yl]-N-(cyclopropylmethyl)-4-hydroxy-N,5-dimethyl-benzenesulfonamide] | < 1000
8 | CC(C)(NS(=O)(=O)c1cc(Cl)c(O)c(N2[C@@H]3CC[C@H]2CN(C(=O)c2ccc(F)cc2Cl)C3)c1)C(F)(F)F [compound 105, 3-chloro-5-[(1S,5R)-3-(2-chloro-4-fluoro-benzoyl)-3,8-diazabicyclo[3.2.1]octan-8-yl]-4-hydroxy-N-(2,2,2-trifluoro-1,1-dimethyl-ethyl)benzenesulfonamide] | < 1000
9 | COc1ccc(S(=O)(=O)N2CCCC2)cc1N1[C@@H]2CC[C@H]1CN(C(=O)c1ccc(F)cc1Cl)C2 [compound 004, (2-chloro-4-fluoro-phenyl)-[(1S,5R)-8-(2-methoxy-5-pyrrolidin-1-ylsulfonyl-phenyl)-3,8-diazabicyclo[3.2.1]octan-3-yl]methanone] | 1000 to 10000
10 | N#Cc1ccc(S(=O)(=O)N2CCC(c3ccccc3)CC2)cc1N1[C@@H]2CC[C@H]1CN(C(=O)c1ccc(F)cc1Cl)C2 [compound 125] | < 1000
11 | O=C(c1ccc(F)cc1Cl)N1C[C@H]2CC[C@@H](C1)N2c1cc(S(=O)(=O)N2CCC(c3ccccc3)CC2)cc(Cl)c1O [compound 098] | < 1000
12 | O=C(c1ccc(F)cc1Cl)N1C[C@H]2CC[C@@H](C1)N2c1cc(S(=O)(=O)N2CCC(CCc3ccccc3)CC2)ccc1OCCO [compound 077, (2-chloro-4-fluoro-phenyl)-[(1S,5R)-8-[2-(2-hydroxyethoxy)-5-[[4-(2-phenylethyl)-1-piperidyl]sulfonyl]phenyl]-3,8-diazabicyclo[3.2.1]octan-3-yl]methanone] | < 1000
13 | COc1ccc(S(=O)(=O)N2CCC(Cc3ccccc3)CC2)cc1N1CCN(C(=O)c2ccc(F)cc2C(F)(F)F)CC1C (racemic) [compound 018, [4-fluoro-2-(trifluoromethyl)phenyl]-[rac-(3S)-4-[5-[(4-benzyl-1-piperidyl)sulfonyl]-2-methoxy-phenyl]-3-methyl-piperazin-1-yl]methanone] | 1000 to 10000
14 | CC(C)(C)NS(=O)(=O)c1cc(Cl)c(Cl)c(N2[C@@H]3CC[C@H]2CN(C(=O)c2ccc(F)cc2Cl)C3)c1 [compound 075, N-tert-butyl-3,4-dichloro-5-[(1S,5R)-3-(2-chloro-4-fluoro-benzoyl)-3,8-diazabicyclo[3.2.1]octan-8-yl]benzenesulfonamide] | < 1000
15 | CCCN(C)S(=O)(=O)c1ccc(OC)c(N2CCN(C(=O)c3ccc(F)cc3C(F)(F)F)CC2COC)c1 (racemic) [compound 022, 4-methoxy-N-methyl-N-propyl-3-[rac-(2R)-4-[4-fluoro-2-(trifluoromethyl)benzoyl]-2-(methoxymethyl)piperazin-1-yl]benzenesulfonamide] | 10000 to 50000
16 | O=C(c1ccc(F)cc1Cl)N1C[C@H]2CC[C@@H](C1)N2c1cc(S(=O)(=O)N2CCC(c3ccc(F)cc3)CC2)cc(Cl)c1O [compound 099, (2-chloro-4-fluoro-phenyl)-[(1S,5R)-8-[3-chloro-5-[[4-(4-fluorophenyl)-1-piperidyl]sulfonyl]-2-hydroxy-phenyl]-3,8-diazabicyclo[3.2.1]octan-3-yl]methanone] | < 1000
17 | O=C(c1ccc(F)cc1Cl)N1C[C@H]2CC[C@@H](C1)N2c1cc(S(=O)(=O)N2CCC(c3ccccc3)CC2)ccc1-c1c[nH]cn1 [compound 081] | < 1000
18 | CC(C)(C)NS(=O)(=O)c1cc(F)c(O)c(N2[C@@H]3CC[C@H]2CN(C(=O)c2ccc(F)cc2Cl)C3)c1 [compound 085, N-tert-butyl-3-[(1S,5R)-3-(2-chloro-4-fluoro-benzoyl)-3,8-diazabicyclo[3.2.1]octan-8-yl]-5-fluoro-4-hydroxy-benzenesulfonamide] | < 1000
19 | COCCOc1c(Cl)cc(S(=O)(=O)NC(C)(C)C)cc1N1[C@@H]2CC[C@H]1CN(C(=O)c1ccc(F)cc1Cl)C2 [compound 113] | < 1000
20 | CC(C)(O)c1ccc(S(=O)(=O)N2CCC(c3ccccc3)CC2)cc1N1[C@@H]2CC[C@H]1CN(C(=O)c1ccc(F)cc1Cl)C2 [compound 072, (2-chloro-4-fluoro-phenyl)-[(1S,5R)-8-[2-(1-hydroxy-1-methyl-ethyl)-5-[(4-phenyl-1-piperidyl)sulfonyl]phenyl]-3,8-diazabicyclo[3.2.1]octan-3-yl]methanone] | 1000 to 10000
21 | CC(C)(C#N)NS(=O)(=O)c1cc(Cl)c(O)c(N2[C@@H]3CC[C@H]2CN(C(=O)c2ccc(F)cc2Cl)C3)c1 [compound 103] | 1000 to 10000
22 | COc1ccc(S(=O)(=O)N2CCN(CCc3ccc(F)cc3)CC2)cc1N1[C@@H]2CC[C@H]1CN(C(=O)c1ccc(F)cc1Cl)C2 [compound 046, (2-chloro-4-fluoro-phenyl)-[(1S,5R)-8-[5-[4-[2-(4-fluorophenyl)ethyl]piperazin-1-yl]sulfonyl-2-methoxy-phenyl]-3,8-diazabicyclo[3.2.1]octan-3-yl]methanone] | < 1000
23 | CN(CC1CC1)S(=O)(=O)c1cc2c(c(N3[C@@H]4CC[C@H]3CN(C(=O)c3ccc(F)cc3Cl)C4)c1)OCC2 [compound 058, 7-[(1S,5R)-3-(2-chloro-4-fluoro-benzoyl)-3,8-diazabicyclo[3.2.1]octan-8-yl]-N-(cyclopropylmethyl)-N-methyl-2,3-dihydrobenzofuran-5-sulfonamide] | 1000 to 10000
24 | CN(CC1CC1)S(=O)(=O)c1cc(Cl)c(O)c(N2[C@@H]3CC[C@H]2CN(C(=O)c2ccc(F)cc2Cl)C3)c1 [compound 096, 3-chloro-5-[(1S,5R)-3-(2-chloro-4-fluoro-benzoyl)-3,8-diazabicyclo[3.2.1]octan-8-yl]-N-(cyclopropylmethyl)-4-hydroxy-N-methyl-benzenesulfonamide] | < 1000
25 | CN(C)c1ccc(S(=O)(=O)N2CCC(c3ccccc3)CC2)cc1N1[C@@H]2CC[C@H]1CN(C(=O)c1ccc(F)cc1Cl)C2 [compound 121, (2-chloro-4-fluoro-phenyl)-[(1S,5R)-8-[2-(dimethylamino)-5-[(4-phenyl-1-piperidyl)sulfonyl]phenyl]-3,8-diazabicyclo[3.2.1]octan-3-yl]methanone] | < 1000
26 | CN(C(C)(C)C)S(=O)(=O)c1cc(Cl)c(OCCO)c(N2[C@@H]3CC[C@H]2CN(C(=O)c2ccc(F)cc2Cl)C3)c1 [compound 134] | < 1000
27 | COC(=O)c1cccc(C2CCN(S(=O)(=O)c3ccc(OC)c(N4[C@@H]5CC[C@H]4CN(C(=O)c4ccc(F)cc4Cl)C5)c3)CC2)c1 [compound 041, methyl 3-[1-[3-[(1S,5R)-3-(2-chloro-4-fluoro-benzoyl)-3,8-diazabicyclo[3.2.1]octan-8-yl]-4-methoxy-phenyl]sulfonyl-4-piperidyl]benzoate] | < 1000
28 | COc1ccc(S(=O)(=O)N2CCN(Cc3ccccc3)CC2)cc1N1[C@@H]2CC[C@H]1CN(C(=O)c1ccc(F)cc1Cl)C2 [compound 014] | 1000 to 10000
29 | COc1ccc(S(=O)(=O)N2CCN(c3ccccc3)CC2)cc1N1[C@@H]2CC[C@H]1CN(C(=O)c1cc(F)c(F)cc1Cl)C2 [compound 051] | < 1000
30 | O=C(c1ccc(F)cc1Cl)N1C[C@H]2CC[C@@H](C1)N2c1cc(S(=O)(=O)N2CCN(CCc3ccc(F)cc3)CC2)cc2c1OCC2 [compound 059, (2-chloro-4-fluoro-phenyl)-[(1S,5R)-8-[5-[4-[2-(4-fluorophenyl)ethyl]piperazin-1-yl]sulfonyl-2,3-dihydrobenzofuran-7-yl]-3,8-diazabicyclo[3.2.1]octan-3-yl]methanone] | < 1000

— patent US20260022096A1, “NOVEL SULFONAMIDES AND THEIR USE AS NEUROPROTECTIVE AND/OR NEURORESTORATIVE AGENTS” (GENECODE, priority 2022, published 2026)
